Where a SMILES comes first, the peptide text is derived from it. The star is where a group is joined. Galloyl = O=C(c1cc(O)c(O)c(O)c1)*
What was measured:
[1] = tested on: lipid droplets in HCVcc-infected Huh-7.5 cells; test: Intracellular distribution and quantity of neutral lipids (Bodipy 493/503); format: cell-based, human; settings: 20 μM; 48 h; HCV-infected Huh-7.5
Excerpt: Figure 7 GA-Hecate effect on lipid droplets. (A) Pattern of lipid droplet distribution on treated and non-treated HCV-infected Huh-7.5 cells and the lipid droplets relative quantification. Blue: DAPI staining nuclei; Green: lipid droplets stained by Bodipy 493/503; Red: HCV NS5A represented by Alexa fluor-594. (B) Light Scattering Dynamic showing synthetic unilamellar vesicle size with lipid droplet constitution after treatment with the following: I. Water (negative control of size change); II. Triton-X 100 (positive control of size change); III. Hecate; IV. GA-Hecate.
To evaluate the GA-Hecate effect on the intracellular neutral lipid distribution, the GA-Hecate-treated cells at maximum non-cytotoxic concentration (20 μM) were evaluated 48 h post-treatment. For this purpose, 2 × 10^4 Huh-7.5 cells that were infected with HCVcc were seeded in a 24-well plate 24 h […] the treatment. On the following day, GA-Hecate or water (peptide diluent) were added in the plate and incubated for 48 h. […] To quantify the intracellular lipid content, two - four photos/well were performed and the fluorescence intensity was measured by ImageJ software. Bodipy fluorescence was normalized with DAPI fluorescence.

[2] = tested on: HCVcc FL-J6/JFH-50C19Rluc2AUbi (genotype 2a); test: HCVcc replication (full-length replicon, Renilla luciferase / protein); format: cell-based, hepatitis C virus; settings: 20 μM; 48 h; viral RNA (luciferase) and protein levels
Excerpt: Figure 4 GA-Hecate effect on HCVcc replication. (A) HCV RNA expression measured by the Renilla luciferase reporter gene. (B) HCV non-structural (NS5A) protein expression. GAPDH was used as an endogenous control. Water was used as a negative control of virus replication inhibition (Control (−)), and cyclosporine A was used as a positive control of virus replication inhibition (Control (+)). Bars represent triplicate samples of three independent assays. RLU - Relative light units. ***P < 0.001 vs Control (−); F = 273.2, df (between columns) = 5.
Cell lines harboring subgenomic or genomic replicons were seeded at 5 × 10^3 cells /well on 96-well plates and the compounds were added 24 h post-seeding, in a concentration range between 2.5–20 μM. […] Luciferase activity was measured using a luminometer (FLUOstar Omega/BMG LABTECH, Offenburg, BW, DE). […]
HCV (FL J6/JFH) infected cells were used to evaluate virus protein expression after peptide treatment. […] Total protein was quantified using a BCA assay (Thermo-Scientific) following the manufacturer’s instructions. […] Finally, the membrane was incubated for 1 minute with Pierce ECL Western Blotting Substrate (Thermo-Scientific-Pierce, Rockford, IL, USA), and the luminescence intensity was captured on a Chemi-Doc System (Bio-Rad, Amadora, PT). […]

[3] = tested on: JFH-1-infected Huh-7.5 cells; test: HCV release/assembly evaluation (qPCR intra/extracellular HCV RNA); format: cell-based, hepatitis C virus; settings: 24 h treatment; 5, 10 and 20 μM, not dose-dependent
Protocol: Figure 6 GA-Hecate effect on HCV Release and infectivity. (A) HCV-infected Huh-7.5 cells were treated for 24 h with GA-Hecate. RNA was isolated and summited to qPCR for HCV 5′ UTR. Intracellular HCV expression was normalized by GAPDH, and extracellular HCV expression was calculated by absolute quantification. The difference between the intra and extracellular RNA expression represents the HCV release. Bars represent triplicate samples of three independent assays. Naringenin (200 μM) was used as a positive control of HCV release inhibition and water was a negative control of HCV release inhibition. ^aP < 0.001 vs Control (−), intracellular. ^bP < 0.001 vs Control (−), extracellular. F = 22.58, df (row factor) = 4. (B) Infectivity. HCV-infected Huh-7.5 cells were treated for 24 h with GA-Hecate, and then the supernatant was collected and used to infect naïve Huh-7.5 cells. The capacity of HCVcc particles to generate a new infection after GA-Hecate treatment is represented by the bars. […]
JFH-1-infected Huh-7.5 cells were used to evaluate the GA-Hecate effect on virus release/assembly. […] After treatment, the intracellular and extracellular RNA content was isolated following the TRIzol reagent protocol and quantified by qPCR of the HCV 5′ UTR region (forward: 5′ CGGGAGAGCCATAGTGG; reverse, 5′ […]; probe: 5′-FAM-[…]-TAMRA-3) using TaqMan® Universal PCR Master Mix (Thermo Scientific, CA, USA).

Structure (SMILES): CC(C)C[C@H](NC(=O)[C@H](C)NC(=O)[C@H](CCCCN)NC(=O)[C@H](CCCCN)NC(=O)[C@H](CC(C)C)NC(=O)[C@H](C)NC(=O)[C@H](CCCCN)NC(=O)[C@H](CCCCN)NC(=O)[C@H](CC(C)C)NC(=O)[C@H](CCCCN)NC(=O)[C@H](CCCCN)NC(=O)[C@H](CC(C)C)NC(=O)[C@H](C)NC(=O)[C@H](CCCCN)NC(=O)[C@H](CCCCN)NC(=O)[C@H](CC(C)C)NC(=O)[C@H](C)NC(=O)[C@H](CCCCN)NC(=O)[C@H](CC(C)C)NC(=O)[C@H](C)NC(=O)[C@H](CC(C)C)NC(=O)[C@H](C)NC(=O)[C@H](Cc1ccccc1)NC(=O)c1cc(O)c(O)c(O)c1)C(N)=O [GA-Hecate] (Galloyl-FALALKALKKALKKLKKALKKAL-NH2)
- effect on lipid droplets distribution and quantity [1]: altered the lipid droplets distribution and reduced its quantity
- inhibition of HCVcc replication [2]: approximately 85%
- inhibition of virus release [3]: approximately 50%
